The test system of assay [1] is pancreatic cancer PDX14244 or PDX17624 tumors. The assay can be described thus: Western blots of pancreatic cancer PDX tumors after oral treatment. Type of assay: in vivo, SCID mice. The conditions noted are these: 5 mg/kg oral; day 1-3. As for the experimental part: The collected tumor tissues were then homogenized with untrasound and analyzed using the corresponding antibodies for DDX5, Agrin, YAP1, p-FAK, FAK, Integrin and Actin via Western blots. Actin expression is the internal control of total protein loading.
For frozen prostate cancer tissue specimens and their adjacent non-tumor tissues (if any) obtained from Roswell Park pathology network, 30-50 mg of each tissue in a 1.5 Eppendorf tube containing 500 μL of 2×SDS lysis buffer containing Tris pH 6.8+4% SDS+10% Glycerol were homogenized through ultrasound treatment for 10-15 second per time with 3-6 times until tumor tissue was lysed. After all tissues were processed, 1.5 mL tubes were centrifuged at 13,000 rom in a microcentrifuge for 1-2 min and then the supernatant in each tube was transferred into a new 1.5 mL tube for protein concentration measurement (refer to the section of “Studies with Human patient tumor specimens” for more information). […] Proteins of interest were detected using Western Lightning ECL-Plus (Perkin Elmer, Waltham, MA) and visualized by various times (3-120 seconds) of exposure. Actin, tubulin and/or GAPDH were detected as the internal control to normalize total protein loading for each sample.
In general terms: Immunoblotting shows a protein as a band on a membrane.

The target in assay [2] is T1, bovine serum albumin (BSA) (Bos taurus, UniProt P02769).
T1 construct: purchased EMD (Billerica, MA)
The assay can be described thus: ITC, BSA control protein. The assay is classed as binding. As for the experimental part:
(2) Preparation of Flag-DDX5, Flag-USP2, Flag-UbE2T and Flag-Top1 protein solutions (>360 μL/sample), respectively, containing 10 μM of Flag-DDX5, Flag-USP2, Flag-UbE2T or Flag-Top1 proteins in 1×PBS (pH7.4) and 8% DMSO from protein stocks in 1× PBS (the same solution was also prepared for BSA).
(3) preparation of washing/diluting solution (>2.5 mL/sample) containing 1× PBS (pH7.4) and 8% DMSO.
(4) ITC assay was performed using the auto-iTC200 instrument (MicroCal, GE). A protein solution (Flag-DDX5, Flag-USP2, Flag-UbE2T, Flag-Topl or BSA) with defined concentration (10 μM) in a volume of 360 μL in 1×PBS (pH7.4) containing 8% DMSO was loaded into the calorimeter cell as the Macromolecule (M). […] At each injection, the program calculates [M]t and [X]t (total protein and total ligand at that injection). The binding constant (KD)), binding stoichiometry (n), and thermodynamic parameters (AH and AS) were determined by fitting the titration curve to a one-site binding mode, using the Origin software provided by the manufacturer.
For orientation: Isothermal titration calorimetry measures the heat released or taken up as one component is titrated into another.

Another assay concerns the target DDX5 (Homo sapiens, UniProt P17844). In words: FL118 affinity column purification and mass spectrometry. As to conditions: SW620 protein lysates. The assay is classed as binding. The procedure:
The process includes many experimental steps as described below.
Affinity purification column setup: (i) transfer the control resin slurry and the FL118-coupled resin slurry into two columns, respectively; (ii) allow resin to settle and then open the bottom cap to allow the solution to flow out to drain all the reaction solution; (iii) washing the column with 2 ml CB, and then with 2 ml ultrapure water/DMSO solution (75:25). […] Then additional 3×4 ml tris washing buffer (0.1 M Tris, pH 8.0).
After extensive washing with washing buffer, the proteins binding on the column were eluted with 8M urea buffers.
After digestion, the tryptic products were extracted twice and dried; the dried peptides were then reconstituted in 10 μL of 2% (v/v) formic acid for analysis with Liquid Chromatography Tandem Mass Spectrometry (LC-ESI-MS/MS). LC-ESI-MS/MS analysis of peptides was performed using a nano-ACQUITY UPLC system (Waters Corporation, Milford, MA) coupled through a nano-spray ionization source to a Quadrupole-Time-of-Flight (Q-ToF) Premier mass spectrometer (Micromass, Waters Corporation). […] The criteria used to identify the proteins included ion scores equal to or greater than the threshold significant ion score ([…]), and similarity between the observed protein molecular mass from gel electrophoresis and the calculated molecular mass provided in the database. […]

Experimental findings from patent US20250312469A1 (CANGET BIOTEKPHARMA, priority 2024, published 2025) are described below.

SMILES strings stand for the structures.

DDX5, sequence (P17844 whole entry): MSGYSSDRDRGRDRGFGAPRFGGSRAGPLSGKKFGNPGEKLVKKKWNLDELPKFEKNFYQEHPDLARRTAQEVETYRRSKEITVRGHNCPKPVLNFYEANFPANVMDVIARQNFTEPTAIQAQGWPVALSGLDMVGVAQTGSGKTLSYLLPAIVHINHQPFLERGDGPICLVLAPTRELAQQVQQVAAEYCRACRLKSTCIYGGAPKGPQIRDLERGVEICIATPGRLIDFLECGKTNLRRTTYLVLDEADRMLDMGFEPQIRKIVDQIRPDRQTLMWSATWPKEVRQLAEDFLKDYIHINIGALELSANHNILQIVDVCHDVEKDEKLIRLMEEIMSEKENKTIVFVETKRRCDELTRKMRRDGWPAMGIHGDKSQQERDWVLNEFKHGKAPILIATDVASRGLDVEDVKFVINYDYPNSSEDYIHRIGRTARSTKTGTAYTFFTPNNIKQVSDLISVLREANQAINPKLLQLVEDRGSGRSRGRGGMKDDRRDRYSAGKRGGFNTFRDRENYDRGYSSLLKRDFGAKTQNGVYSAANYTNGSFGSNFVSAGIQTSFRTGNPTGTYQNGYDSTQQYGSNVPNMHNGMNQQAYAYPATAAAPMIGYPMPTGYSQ
T1 sequence (P02769 25-607): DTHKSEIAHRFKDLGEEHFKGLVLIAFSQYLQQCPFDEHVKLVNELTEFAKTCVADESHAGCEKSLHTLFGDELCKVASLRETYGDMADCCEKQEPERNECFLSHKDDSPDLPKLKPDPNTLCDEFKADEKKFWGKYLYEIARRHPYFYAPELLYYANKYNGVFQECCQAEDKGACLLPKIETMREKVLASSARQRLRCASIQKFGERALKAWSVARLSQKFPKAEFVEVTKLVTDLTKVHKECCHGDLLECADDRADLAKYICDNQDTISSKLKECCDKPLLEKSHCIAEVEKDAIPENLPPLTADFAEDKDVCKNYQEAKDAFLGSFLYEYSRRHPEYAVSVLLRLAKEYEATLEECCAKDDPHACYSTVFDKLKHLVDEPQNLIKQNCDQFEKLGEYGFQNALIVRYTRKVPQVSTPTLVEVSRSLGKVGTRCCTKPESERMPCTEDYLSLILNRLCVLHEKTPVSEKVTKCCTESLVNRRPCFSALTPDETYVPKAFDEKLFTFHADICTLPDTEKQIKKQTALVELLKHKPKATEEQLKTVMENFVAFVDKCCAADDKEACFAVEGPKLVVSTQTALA

Turning to `CCC1(O)C(=O)OCc2c1cc1n(c2=O)Cc2cc3cc4c(cc3nc2-1)OCO4` (stereo not drawn) [FL118], in assay [1], the “DDX5, Agrin, YAP1, p-FAK, Integrin in PDX tumors” value is given as “more profound decrease”. For the same molecule, in assay [2], the “binding to BSA” value was “no binding”. In addition, the “binding to DDX5 (affinity purification, MS)” value on DDX5 is “physically binds”.
